Columns and labels:
[1] = oral toxicity on mice; conditions: mouse, in vivo
Text: (§1) The fodder utilization factors determined for the compounds according to the invention, furthermore the oral toxicity data of the novel compounds measured on mice are listed in Table 1. For the sake of comparison the respective data of some known compounds structurally related to those of formula I are also given.

[2] = test system: pigs; assay: weight gain increasing effect on pigs (fodder admixed with compound), fodder utilization factor; format: in vivo; conditions: fodder admixed with 50 mg./kg. of compound, index from feeding coefficient and percentage daily weight gain, control 50
Protocol: When utilized as fodder additives, the new compounds according to the invention increase the weight gain and fodder utilization of pigs. The weight gain increasing effect of the compounds was tested on pigs as follows:
The animals were fed under the same conditions with fodders of the same amount and composition. In the test groups the animals received a fodder admixed with 50 mg./kg. of the compound to be tested, whereas no additive was admixed with the fodder in the control group.
The weight gain was measured daily, and the feeding coefficient (amount of consumed fodder resulting in a weight gain of 1 kg.) was calculated. The percentage daily weight gain was calculated by the formula [formula]
Since the rate of weight gain increasing effect depends on both the feeding coefficient and the percentage daily weight gain, and because of the actual fodder consumption and the time required to reach the slaughter weight are the important factors of economical animal husbandry, an index characteristic of the rate of weight gain increase was calculated from the above data by the equation [formula] The higher is the fodder utilization factor the more economic is the pig-breeding.
as §1

## O=C(Cc1cccc2ccccc12)NN=Cc1c[n+]([O-])c2ccccc2[n+]1[O-] [1-napthylmethyl, 2-(1'-Naphthyl-acetyl)-hydrazono-formyl-quinoxaline-1,4-dioxide]
[1]; po
  LD50: 13000 mg/kg
[2]
  Fodder utilization factor: 93.5

## O=C(NN=Cc1c[n+]([O-])c2ccccc2[n+]1[O-])c1ccncc1 [Example 4-pyridyl, 2-(Isonicotinoyl)-hydrazono-formyl-quinoxaline-1,4-dioxide]
[1]; oral, mice
  LD50: 12000 mg/kg
[2]
  Fodder utilization factor: 91

## O=C(NN=Cc1c[n+]([O-])c2ccccc2[n+]1[O-])c1ccc([N+](=O)[O-])o1 [Example 5-nitrofuryl, 2-(5'-Nitro-2'-furanoyl)-hydrazono-formyl-quinoxaline-1,4-dioxide]
[1]; po
  LD50: 14000 mg/kg
[2]
  Fodder utilization factor: 91

## CCCCCCC(=O)NN=Cc1c[n+]([O-])c2ccccc2[n+]1[O-] [hexyl, 2-(Hexylcarbonyl-hydrazono-formyl)-quinoxaline-1,4-dioxide]
[1]; po
  LD50: 4000 mg/kg
[2]
  Fodder utilization factor: 53

## COC(=O)NN=Cc1c[n+]([O-])c2ccccc2[n+]1[O-] [methoxy, 2-(Methoxycarbonyl-hydrazono-formyl)-quinoxaline-1,4-dioxide]
[1]; oral, mice
  LD50: 4000 mg/kg
[2]
  Fodder utilization factor: 66

## O=C(NN=Cc1c[n+]([O-])c2ccccc2[n+]1[O-])c1ccccc1 [phenyl, 2-(Benzoyl-hydrazono-formyl)-quinoxaline-1,4-dioxide]
[1]; oral, mice
  LD50: 4000 mg/kg
[2]
  Fodder utilization factor: 66

From patent US4091206A, “Quinoxaline-1,4-dioxide derivatives” (Egyt Gyogyszervegyeszeti Gyar, priority 1974, dated 1978)
